Measurements reported in patent US20180000778A1, “SMALL MOLECULE ANTAGONISTS OF DUSP5 AND METHODS OF USE” (THE MEDICAL COLLEGE OF WISCONSIN, INC., priority 2015, published 2018).
Values joined by “and” are separate entries in the source; they are usually repeats but may differ in a detail not shown here. Identical values can stand only once.

What was measured:
[1] = system: normal vasculature in a developing embryo; experiment: Effect on normal vasculature in a developing embryo
[2] = biological target: T1, PTPN1 (Homo sapiens, UniProt P18031); experiment: Phosphatase inhibition profiles (Table 4), initial rates; format: biochemical
T1 sequence (P18031 1-435): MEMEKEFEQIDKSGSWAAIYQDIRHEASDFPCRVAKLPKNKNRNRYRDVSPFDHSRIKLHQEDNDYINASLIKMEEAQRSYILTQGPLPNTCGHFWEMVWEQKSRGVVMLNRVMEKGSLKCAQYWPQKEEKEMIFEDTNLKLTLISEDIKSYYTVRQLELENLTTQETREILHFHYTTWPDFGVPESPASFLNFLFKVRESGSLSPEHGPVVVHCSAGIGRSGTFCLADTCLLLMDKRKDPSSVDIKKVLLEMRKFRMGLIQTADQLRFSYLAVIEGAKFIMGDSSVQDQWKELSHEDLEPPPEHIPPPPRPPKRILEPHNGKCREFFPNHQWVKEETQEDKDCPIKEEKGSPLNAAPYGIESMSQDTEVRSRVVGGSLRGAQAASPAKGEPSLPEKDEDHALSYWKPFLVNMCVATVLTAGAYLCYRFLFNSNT

[3] = biological target: T2, DUSP5 (PD)-WT (Homo sapiens, UniProt Q16690); experiment: as above; format: biochemical; details: using ERK2 as substrate, read-out: IC50 DUSP5 (PD)-WT (mean ± SE)
T2 construct: hexa-histidine (N); made in house; host or cells: E. coli BL21(DE3)
T2 sequence (Q16690 178-319): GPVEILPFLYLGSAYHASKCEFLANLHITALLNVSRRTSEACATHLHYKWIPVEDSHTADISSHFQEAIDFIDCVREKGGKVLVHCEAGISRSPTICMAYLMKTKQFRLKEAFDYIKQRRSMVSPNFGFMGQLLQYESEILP

[4] = Aggregation of compounds (nephelometry; detergent treatment); format: physicochemical
Protocol: Nephelometry is a technique for measuring the relative aggregation of particles in solution, based on the light-scattering properties of molecular aggregates (30). To explore the ability of the chemicals studied herein to form aggregates, which can lead to artifactual inhibition effects, nephelometry was performed. Compounds were tested for aggregation in 96-well plates using a buffer containing 100 mM Tris base, 100 mM sodium chloride, and 5 mM magnesium chloride at pH 7.5. Each compound analyzed in these experiments contained concentrations of compound ranging from 10-100 μM, recorded in quadruplet. Each plate was analyzed at two separate gain values of 52 and 72. Data were collected using a BMG NEPHELOstar Plus, equipped with a 635 nm laser.
To investigate whether Suramin aggregates in solution, a property often investigated with small molecules, we performed detergent treatment assays. […] NTS and Suramin were compared using DUSP5 PD IC50 assays performed with and without detergent. […] We concluded that Suramin forms aggregates in vitro which can lead to non-specific protein inhibition effects. Beyond any adverse implications for repurposing Suramin in this project, the aggregation phenomenon raises more global concerns regarding the current clinical use of Suramin, and may in part explain some of the known toxicity associated with Suramin (32).

[5] = biological target: T3, GST-tagged full length DUSP5 (Homo sapiens, UniProt Q16690); experiment: pNPP assay with GST-tagged full length DUSP5; format: biochemical; details: full length DUSP5, pNPP as substrate; listed as CSD3-2320
T3 construct: GST-tagged full length DUSP5, when pNPP was used as a substrate
T3 sequence (Q16690 whole entry): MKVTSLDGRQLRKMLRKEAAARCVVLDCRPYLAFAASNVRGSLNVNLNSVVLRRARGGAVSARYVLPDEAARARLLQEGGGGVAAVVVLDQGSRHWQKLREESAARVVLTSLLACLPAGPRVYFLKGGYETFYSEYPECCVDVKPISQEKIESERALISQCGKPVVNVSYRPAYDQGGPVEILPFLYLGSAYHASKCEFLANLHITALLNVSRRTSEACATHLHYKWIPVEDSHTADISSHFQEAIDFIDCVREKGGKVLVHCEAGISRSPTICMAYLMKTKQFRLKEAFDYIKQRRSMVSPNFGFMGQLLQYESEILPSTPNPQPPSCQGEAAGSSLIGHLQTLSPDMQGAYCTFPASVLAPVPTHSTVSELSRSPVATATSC

In the case of O=S(=O)([O-])c1ccc2[nH]c3c(S(=O)(=O)[O-])cc(S(=O)(=O)[O-])cc3c2c1.[Na+].[Na+].[Na+] [RR505, Carbazole-1,3,6-trisulfonic acid, Trisodium Salt], the “effect on normal vasculature” value [1] is reported as “does not appear to affect normal vasculature”.
In the case of O=S(=O)(O)c1cc(O)c2c(S(=O)(=O)O)cccc2c1 [RR527], the “IC50 PTPN1 (mean ± SE)” value [2] is reported as “Does not inhibit”, the IC50 [3] is reported as greater than 1000 µM and the aggregation [4] is reported as “no propensity to aggregate”. The IC50 [5] was 563 µM and 561 µM.
